# Measurements from publication PMC4508619 (Scientific Reports, 2015).
# Entries after “also recorded” stand apart in the source; their conditions may differ.
# What was measured:
# Type in all cases: cell-based
# [1] = biological target: T1, concatemeric rTRPV1 (4wt) (Rattus norvegicus, UniProt O35433); assay: Single-channel outside-out patch recording, Flp-in TREX HEK293 cells, 4wt; parameters: expressed in transfected cells; host or cells: HEK293T, transient, pCDNA3.1+
# From the text: (§1) In order to facilitate recording from a single channel, we used an inducible system, Flp-in TREX, which allows doxycycline-controlled construct expression levels. […] The membrane potential was held at +60 mV considering that the conductance of TRPV1 receptor channels is higher at positive potentials. The pipette contained standard intracellular patch solution, and the patch of membrane was continuously perfused with standard extracellular solution.
# (§2) Briefly, cells were co-transfected (performed as described above) with pcDNA5/FRT/TO containing the gene of interest and the Flp-recombinase expression vector pOG44 into the Flp-In host cell line (Invitrogen, MA, USA) at a ratio of 1:9, respectively, as previously described.
# (§3) Patch clamp experiments were executed using HEK293T cells in the whole cell or outside-out configuration 24 hrs after transfection, as previously described. 30,000 cells were plated on glass coverslips (12 mm) coated with relevant amounts of poly-D-Lysine (PDL; Sigma-Aldrich, MO, USA) and/or Matrigel (BD-biosciences, MA, USA) according to the configuration (see below). Patch electrodes were fabricated from borosilicate glass using the P1000 Micropipette Puller (Sutter Instrument, CA, USA) and fire-polished using the microforge MF-900 (Narishige, Tokyo, Japan). Electrodes were coated with Sylgard (World Precision Instrument, FL, USA) to reduce the capacity of the recording pipette and to improve noise characteristics. […] Recordings were performed using Axopatch 200B patch clamp amplifier (Molecular Devices, CA, USA), and data was collected and analyzed using pClamp 10.2 software (Molecular Devices, CA, USA). All experiments were carried out at room temperature.
# Single-channel currents were recorded in the outside-out patch configuration of the patch-clamp technique, as previously described. All single-channel recordings were done using the stable cell line Flp-in TREX 293 cells. Cells were plated on coverslips coated with 0.2 mg/ml PDL one hour prior induction. Doxycycline concentration and induction times for obtaining a membrane patches with a single channel were determined for each construct. Generally, 0.3–1 μg/ml doxycycline was used for 2–4 hrs prior to recordings. Patch electrodes were fire-polished to a resistance of 10–15 MΩ. The pipette solution contained (mM): 130 KCl, 4 NaCl, 2 MgSO4, 0.5 CaCl2, 1 EGTA and 10 HEPES adjusted to pH 7.2 with KOH. Single-channel currents were low-pass filtered at 5 kHz and digitized at 50 kHz. Occasional large brief noise spikes were visually identified and removed from the current traces. Single-channel recordings were analyzed with the pCLAMP 10.2 program Clampfit (Axon Instruments, USA), as previously described. For each concatemeric construct, 150–2000 events were collected from each of 3–5 separate patches. […]
# [2] = biological target: T1, concatemeric rTRPV1 (4wt); assay: Two electrode voltage clamp, Xenopus laevis oocytes expressing 4wt concatemer; conditions: capsaicin, TEVC
# Experimental: (§4) The current-voltage relationship was determined using whole-cell patch-clamp recordings.
# (§5) Stage V–VI Xenopus laevis oocytes were prepared as previously described. Oocytes were injected up to 24 hr after isolation with a total of 5 ng cRNA, and assayed 5–10 days later. Two electrode voltage-clamp recordings were carried out at RT using GeneClamp 500 connected to digidata1322A and pCLAMP 8.2 (Molecular Devices, CA, USA). Electrodes (Sutter Instruments, CA, USA) were filled with 3 M KCl and had resistance of 0.5–1 MΩ. Oocytes were continuously perfused with normal frog ringer (NFR) solution without calcium containing (mM): 115 NaCl, 2.5 KCl, 2 […], and 10 HEPES, pH 7.4 with NaOH.
# [3] = biological target: T2, rTRPV1 concatemer 4qa (E600Q/E648A in all subunits) (Rattus norvegicus, UniProt O35433, E600Q/E648A); assay: Whole-cell patch-clamp, HEK293T cells expressing 4qa concatemer; conditions: capsaicin 1 μM, −40 mV
# T2 construct: expressed in transfected cells; host or cells: HEK293T, transient, pCDNA3.1+
# Experimental: as §3, with “Japan).” for “Japan). Electrodes were coated with Sylgard (World Precision Instrument, FL, USA) to reduce the capacity of the recording pipette and to improve noise characteristics.”, “All experiments were carried out at room temperature.” left out
# (§6) HEK293T cells were plated on coverslips pre-coated with 0.05 mg/ml poly-D-Lysine (PDL; Sigma-Aldrich, MO, USA) and 1 μg/ml Matrigel (BD-biosciences, Bedford, MA, USA) three hrs prior to recordings. […] To avoid potential voltage errors due to receptor overexpression, dose responses were recorded at −40 mV, with the maximal current limited to ~2.5 nA. […] Proton response recordings were performed with 50 μM Amiloride in the bath solution (Sigma-Aldrich, MO, USA) in order to block natively expressed ASICs[43].
# [4] = biological target: T3, rTRPV1 concatemer 2wt/2ya (two Y511A subunits) (Rattus norvegicus, UniProt O35433, Y511A); assay: Whole-cell patch-clamp, HEK293T cells expressing 2wt/2ya concatemer; conditions: −40 mV
# T3 construct: expressed in transfected cells; host or cells: HEK293T, transient, pCDNA3.1+
# Experimental: (§7) Next, we determined the concentration-response relationship of the various concatemeric constructs, using the whole-cell configuration of the patch clamp at holding voltage of −40 mV.
# (§8) Patch clamp experiments were executed using HEK293T cells in the whole cell or outside-out configuration 24 hrs after transfection, as previously described. 30,000 cells were plated on glass coverslips (12 mm) coated with relevant amounts of poly-D-Lysine (PDL; Sigma-Aldrich, MO, USA) and/or Matrigel (BD-biosciences, MA, USA) according to the configuration (see below). […] Recordings were performed using Axopatch 200B patch clamp amplifier (Molecular Devices, CA, USA), and data was collected and analyzed using pClamp 10.2 software (Molecular Devices, CA, USA). […]
# as §6
# (§9) Dose response curves were calculated by SigmaPlot software (San Jose, CA) using the sigmoidal Hill equation as follows: […]
# rTRPV1 concatemer wt/3ya = biological target: T4, rTRPV1 concatemer wt/3ya (Rattus norvegicus, UniProt O35433, Y511A); assay: Single-channel outside-out patch recording, Flp-in TREX HEK293 cells, wt/3ya; conditions: for single-channel average amplitude, wt/3ya / unitary conductance, wt/3ya: +60 mV, outside-out
# T4 construct: expressed in transfected cells
# From the text: as §1, §2, §3
# Single-channel currents were recorded in the outside-out patch configuration of the patch-clamp technique, as previously described. All single-channel recordings were done using the stable cell line Flp-in TREX 293 cells. Cells were plated on coverslips coated with 0.2 mg/ml PDL one hour prior induction. Doxycycline concentration and induction times for obtaining a membrane patches with a single channel were determined for each construct. Generally, 0.3–1 μg/ml doxycycline was used for 2–4 hrs prior to recordings. Patch electrodes were fire-polished to a resistance of 10–15 MΩ. The pipette solution contained (mM): 130 KCl, 4 NaCl, 2 MgSO4, 0.5 CaCl2, 1 EGTA and 10 HEPES adjusted to pH 7.2 with KOH. Single-channel currents were low-pass filtered at 5 kHz and digitized at 50 kHz. Occasional large brief noise spikes were visually identified and removed from the current traces. Single-channel recordings were analyzed with the pCLAMP 10.2 program Clampfit (Axon Instruments, USA), as previously described. For each concatemeric construct, 150–2000 events were collected from each of 3–5 separate patches. To determine channel amplitude, all-point amplitude histograms were created using data digitally filtered at 2 kHz. To determine channel open probability, traces filtered at 5 kHz were idealized using the half-amplitude threshold crossing method (pCLAMP 10.2)[38].
# rTRPV1 (wt) [5] = biological target: T5, rTRPV1 (wt) (Rattus norvegicus, UniProt O35433); assay: Whole-cell patch-clamp, HEK293T cells transiently expressing wt rTRPV1; parameters: expressed in transfected cells; host or cells: HEK293T, transient, pCDNA3.1+
# Experimental: as §4
# as §3, with “Japan).” for “Japan). Electrodes were coated with Sylgard (World Precision Instrument, FL, USA) to reduce the capacity of the recording pipette and to improve noise characteristics.”, “All experiments were carried out at room temperature.” left out
# (§10) HEK293T cells were plated on coverslips pre-coated with 0.05 mg/ml poly-D-Lysine (PDL; Sigma-Aldrich, MO, USA) and 1 μg/ml Matrigel (BD-biosciences, Bedford, MA, USA) three hrs prior to recordings. […] To avoid potential voltage errors due to receptor overexpression, dose responses were recorded at −40 mV, with the maximal current limited to ~2.5 nA. […] Proton response recordings were performed with 50 μM Amiloride in the bath solution (Sigma-Aldrich, MO, USA) in order to block natively expressed ASICs[43]. […]
# [6] = biological target: T6, rTRPV1 concatemer 4ya (Y511A in all subunits) (Rattus norvegicus, UniProt O35433, Y511A); assay: Whole-cell patch-clamp, HEK293T cells expressing 4ya concatemer; conditions: capsaicin 100 μM, whole-cell voltage ramps −80 to +80 mV
# T6 construct: expressed in transfected cells; host or cells: HEK293T, transient, pCDNA3.1+
# Experimental: as §3, with “Japan).” for “Japan). Electrodes were coated with Sylgard (World Precision Instrument, FL, USA) to reduce the capacity of the recording pipette and to improve noise characteristics.”, “All experiments were carried out at room temperature.” left out
# as §6
# [7] = biological target: T7, rTRPV1 concatemer 3wt/ya (one Y511A subunit) (Rattus norvegicus, UniProt O35433, Y511A); assay: Whole-cell patch-clamp, HEK293T cells expressing 3wt/ya concatemer; conditions: −40 mV
# T7 construct: expressed in transfected cells; host or cells: HEK293T, transient, pCDNA3.1+
# Experimental: as §7, §8, §6, §9
# [8] = biological target: T1, concatemeric rTRPV1 (4wt); assay: Whole-cell patch-clamp, HEK293T cells expressing tetrameric concatemer 4wt; parameters: expressed in transfected cells; host or cells: HEK293T, transient, pCDNA3.1+
# Experimental: as §4, §7, §8, §10
# [9] = biological target: T8, rTRPV1 concatemer wt/3ya (three Y511A subunits) (Rattus norvegicus, UniProt O35433, Y511A); assay: Whole-cell patch-clamp, HEK293T cells expressing wt/3ya concatemer
# T8 construct: expressed in transfected cells; host or cells: HEK293T, transient, pCDNA3.1+
# Experimental: as §7, §8, §6, §9
# rTRPV1 (wt) [10] = biological target: T5, rTRPV1 (wt); assay: Two electrode voltage clamp, Xenopus laevis oocytes expressing wt rTRPV1; conditions: capsaicin, TEVC
# Experimental: as §4, §5
# [11] = 2 μM capsaicin, +60 mV, outside-out
# T5 sequence (O35433 whole entry): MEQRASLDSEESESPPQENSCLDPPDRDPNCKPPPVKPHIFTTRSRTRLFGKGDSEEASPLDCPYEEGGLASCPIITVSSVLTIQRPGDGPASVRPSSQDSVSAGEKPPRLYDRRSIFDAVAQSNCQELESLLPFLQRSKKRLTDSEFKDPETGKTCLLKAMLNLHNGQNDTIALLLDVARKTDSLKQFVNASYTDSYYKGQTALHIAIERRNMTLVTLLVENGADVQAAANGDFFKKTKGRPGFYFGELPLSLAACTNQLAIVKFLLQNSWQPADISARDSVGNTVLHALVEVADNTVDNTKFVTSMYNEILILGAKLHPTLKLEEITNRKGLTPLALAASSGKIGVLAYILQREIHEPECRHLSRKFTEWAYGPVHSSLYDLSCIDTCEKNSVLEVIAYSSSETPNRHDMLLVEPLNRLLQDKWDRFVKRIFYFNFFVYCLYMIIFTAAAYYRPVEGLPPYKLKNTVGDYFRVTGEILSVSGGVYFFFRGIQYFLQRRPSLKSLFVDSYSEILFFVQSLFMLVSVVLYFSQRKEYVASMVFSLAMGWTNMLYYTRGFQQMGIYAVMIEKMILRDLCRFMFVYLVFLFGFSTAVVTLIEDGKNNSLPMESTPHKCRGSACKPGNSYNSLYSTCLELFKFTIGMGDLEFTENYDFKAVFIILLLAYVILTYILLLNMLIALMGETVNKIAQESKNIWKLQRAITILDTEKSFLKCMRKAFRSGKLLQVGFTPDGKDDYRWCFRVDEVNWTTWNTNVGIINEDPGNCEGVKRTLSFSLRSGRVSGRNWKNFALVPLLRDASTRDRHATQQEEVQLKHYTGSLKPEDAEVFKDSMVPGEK
# T4 sequence (O35433 whole entry, stated change not applied): as the sequence (O35433 whole entry) above
# T4 sequence (O35433 2-838 Y511A limits assumed): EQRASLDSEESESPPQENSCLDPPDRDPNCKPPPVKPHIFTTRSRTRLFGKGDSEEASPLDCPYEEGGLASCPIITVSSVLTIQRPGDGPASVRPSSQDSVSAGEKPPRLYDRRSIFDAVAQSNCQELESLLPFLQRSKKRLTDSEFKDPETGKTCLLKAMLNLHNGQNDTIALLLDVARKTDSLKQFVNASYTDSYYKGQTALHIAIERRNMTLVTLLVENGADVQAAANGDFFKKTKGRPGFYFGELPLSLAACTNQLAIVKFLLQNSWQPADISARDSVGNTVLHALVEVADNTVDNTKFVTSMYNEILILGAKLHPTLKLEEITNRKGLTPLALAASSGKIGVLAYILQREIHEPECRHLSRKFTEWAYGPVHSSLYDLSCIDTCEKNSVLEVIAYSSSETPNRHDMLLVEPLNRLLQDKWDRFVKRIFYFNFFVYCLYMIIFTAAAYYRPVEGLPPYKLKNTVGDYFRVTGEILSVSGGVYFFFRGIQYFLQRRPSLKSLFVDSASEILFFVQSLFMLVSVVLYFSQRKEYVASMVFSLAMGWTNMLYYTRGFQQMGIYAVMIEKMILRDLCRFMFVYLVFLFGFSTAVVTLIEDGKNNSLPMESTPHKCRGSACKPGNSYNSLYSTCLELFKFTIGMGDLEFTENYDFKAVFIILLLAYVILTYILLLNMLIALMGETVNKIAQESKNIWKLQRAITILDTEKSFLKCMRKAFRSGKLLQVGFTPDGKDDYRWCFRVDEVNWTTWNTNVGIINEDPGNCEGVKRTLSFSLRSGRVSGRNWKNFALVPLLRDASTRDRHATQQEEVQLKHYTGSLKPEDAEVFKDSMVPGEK
# T4 sequence (O35433 2-838 Y511A limits assumed): as above
# T4 sequence (O35433 2-838 Y511A limits assumed): as above
# T1 sequence (O35433 whole entry, the tested form may be a part): as the sequence (O35433 whole entry) above
# T1 sequence (O35433 2-838 limits assumed): as the sequence (O35433 2-838 Y511A limits assumed) above, with A510Y counted along it
# T1 sequence (O35433 2-838 limits assumed): as the sequence (O35433 2-838 Y511A limits assumed) above, with A510Y counted along it
# T1 sequence (O35433 2-838 limits assumed): as the sequence (O35433 2-838 Y511A limits assumed) above, with A510Y counted along it
# T8 sequence (O35433 whole entry, stated change not applied): as the sequence (O35433 whole entry) above
# T8 sequence (O35433 2-838 Y511A limits assumed): as the sequence (O35433 2-838 Y511A limits assumed) above
# T8 sequence (O35433 2-838 Y511A limits assumed): as above
# T8 sequence (O35433 2-838 Y511A limits assumed): as above
# T6 sequence (O35433 whole entry Y511A): as the sequence (O35433 whole entry) above, with Y511A counted along it
# T6 sequence (O35433 2-838 Y511A limits assumed): as the sequence (O35433 2-838 Y511A limits assumed) above
# T6 sequence (O35433 2-838 Y511A limits assumed): as above
# T6 sequence (O35433 2-838 Y511A limits assumed): as above
# T2 sequence (O35433 whole entry E600Q/E648A): as the sequence (O35433 whole entry) above, with E600Q, E648A counted along it
# T2 sequence (O35433 2-838 E600Q/E648A limits assumed): as the sequence (O35433 2-838 Y511A limits assumed) above, with A510Y, E599Q, E647A counted along it
# T2 sequence (O35433 2-838 E600Q/E648A limits assumed): as the sequence (O35433 2-838 Y511A limits assumed) above, with A510Y, E599Q, E647A counted along it
# T2 sequence (O35433 2-838 E600Q/E648A limits assumed): as the sequence (O35433 2-838 Y511A limits assumed) above, with A510Y, E599Q, E647A counted along it
# T7 sequence (O35433 whole entry, stated change not applied): as the sequence (O35433 whole entry) above
# T7 sequence (O35433 2-838 limits assumed, stated change not applied): as the sequence (O35433 2-838 Y511A limits assumed) above, with A510Y counted along it
# T7 sequence (O35433 2-838 limits assumed, stated change not applied): as the sequence (O35433 2-838 Y511A limits assumed) above, with A510Y counted along it
# T7 sequence (O35433 2-838 Y511A limits assumed): as the sequence (O35433 2-838 Y511A limits assumed) above
# T3 sequence (O35433 whole entry, stated change not applied): as the sequence (O35433 whole entry) above
# T3 sequence (O35433 2-838 limits assumed, stated change not applied): as the sequence (O35433 2-838 Y511A limits assumed) above, with A510Y counted along it
# T3 sequence (O35433 2-838 Y511A limits assumed): as the sequence (O35433 2-838 Y511A limits assumed) above
# T3 sequence (O35433 2-838 Y511A limits assumed): as above
compound,measurement,setting,value
COc1cc(CNC(=O)CCCC/C=C/C(C)C)ccc1O [capsaicin],"capsaicin concentration required to achieve full TRPV1 activation, 4wt",[1],2 µM
same,"open probability, 4wt",[1]; [11],0.89 ± 0.10
same,"single-channel average amplitude, 4wt",[1]; [11],5.2 ± 0.4 pA
same,"unitary conductance, 4wt",[1]; [11],86 ± 3 pS
same,"average current amplitude ICAP+80mV (±SEM), oocytes, 4wt",[2],4.7 ± 0.2 μA
same,"capsaicin response, 4qa vs 4wt",[3],unaffected
same,"Hill coefficient nH for capsaicin, 2wt/2ya",[4],1.2
same,"single-channel average amplitude, wt/3ya",rTRPV1 concatemer wt/3ya; 2 μM capsaicin,4.8 ± 0.5 pA
same,"unitary conductance, wt/3ya",rTRPV1 concatemer wt/3ya; 2 μM capsaicin,80 ± 5 pS
same,"single-channel average amplitude, wt/3ya",rTRPV1 concatemer wt/3ya; 30 μM capsaicin,4.9 ± 0.4 pA
same,"unitary conductance, wt/3ya",rTRPV1 concatemer wt/3ya; 30 μM capsaicin,82 ± 3 pS
same,"capsaicin concentration required to achieve full TRPV1 activation, wt/3ya",rTRPV1 concatemer wt/3ya; single functional VBS,30 µM
same,"average current amplitude ICAP+80mV (±SEM), HEK293T, wt","rTRPV1 (wt) [5]; capsaicin 1 μM, +80 mV",8.3 ± 1.2 nA
same,"Hill coefficient nH for capsaicin, wt","rTRPV1 (wt) [5]; whole-cell, −40 mV",1.3
same,response of 4ya construct to capsaicin,[6],insensitive; also recorded: nearly eliminated
same,"Hill coefficient nH for capsaicin, 3wt/ya",[7],1.1
same,"average current amplitude ICAP+80mV (±SEM), HEK293T, 4wt","[8]; capsaicin 1 μM, +80 mV",7.8 ± 1.8 nA
same,"Hill coefficient nH for capsaicin, 4wt","[8]; whole-cell, −40 mV",1.4
same,response of wt/3ya construct to capsaicin,"[9]; capsaicin 100 μM, whole-cell voltage ramps −80 to +80 mV",robust outward-rectifying current; also recorded: robust capsaicin response
same,"Hill coefficient nH for capsaicin, wt/3ya","[9]; whole-cell, −40 mV",1.1
same,"average current amplitude ICAP+80mV (±SEM), oocytes, wt",rTRPV1 (wt) [10],5.6 ± 0.3 μA
